Among the data in ChEMBL document CHEMBL4680240, “Tail approach synthesis of novel benzenesulfonamides incorporating 1,3,4-oxadiazole hybrids as potent inhibitor of carbonic anhydrase I, II, IX, and XII isoenzymes” (Eur J Med Chem, 2020) are Ki values, retold here.

Molecules are shown by their SMILES.

A word on the Ki: it is a dissociation constant, usually derived from enzyme kinetics or from competition with a known ligand.

The target in one experiment is Carbonic anhydrase 12 (Homo sapiens, UniProt O43570). Description: Inhibition of recombinant human carbonic anhydrase 12 incubated for 10 mins prior to testing measured for 5 to 10 secs by phenol red-based stopped-flow CO2 hydration assay.
Sequence of Carbonic anhydrase 12 (O43570 whole entry): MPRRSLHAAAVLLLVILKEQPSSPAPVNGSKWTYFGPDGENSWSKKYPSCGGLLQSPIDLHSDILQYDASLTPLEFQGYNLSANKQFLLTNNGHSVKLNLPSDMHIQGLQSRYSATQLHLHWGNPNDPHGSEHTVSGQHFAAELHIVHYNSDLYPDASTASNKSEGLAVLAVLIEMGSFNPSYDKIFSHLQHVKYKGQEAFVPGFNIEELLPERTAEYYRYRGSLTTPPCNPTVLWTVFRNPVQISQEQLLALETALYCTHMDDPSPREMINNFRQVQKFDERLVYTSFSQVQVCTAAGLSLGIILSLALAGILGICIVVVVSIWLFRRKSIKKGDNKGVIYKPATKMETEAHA
Another experiment deals with Carbonic anhydrase 1 (Homo sapiens, UniProt P00915). Description: Inhibition of recombinant human carbonic anhydrase 1 incubated for 10 mins prior to testing measured for 5 to 10 secs by phenol red-based stopped-flow CO2 hydration assay.
Sequence of Carbonic anhydrase 1 (P00915 whole entry): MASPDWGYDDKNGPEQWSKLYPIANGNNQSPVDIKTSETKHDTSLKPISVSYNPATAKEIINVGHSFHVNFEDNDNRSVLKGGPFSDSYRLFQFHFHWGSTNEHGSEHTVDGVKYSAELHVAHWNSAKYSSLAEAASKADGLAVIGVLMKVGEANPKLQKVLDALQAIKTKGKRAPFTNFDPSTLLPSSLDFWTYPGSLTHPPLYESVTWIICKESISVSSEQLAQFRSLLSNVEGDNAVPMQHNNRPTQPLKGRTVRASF
Another experiment has as its target Carbonic anhydrase 9 (Homo sapiens, UniProt Q16790). Description: Inhibition of recombinant human carbonic anhydrase 9 incubated for 10 mins prior to testing measured for 5 to 10 secs by phenol red-based stopped-flow CO2 hydration assay.
For a further experiment, the target named is Carbonic anhydrase 2 (Homo sapiens, UniProt P00918). Description: Inhibition of recombinant human carbonic anhydrase 2 incubated for 10 mins prior to testing measured for 5 to 10 secs by phenol red-based stopped-flow CO2 hydration assay.

Turning to `Cc1ccc(NC(=O)CSc2nnc(-c3ccc(S(N)(=O)=O)cc3)o2)cc1`, the inhibition constant Ki stood at 263 nM at Carbonic anhydrase 12, 739 nM at Carbonic anhydrase 1, 74.1 nM at Carbonic anhydrase 9 and 78.7 nM at Carbonic anhydrase 2.

As for `COc1ccc(NC(=O)CSc2nnc(-c3ccc(S(N)(=O)=O)cc3)o2)cc1`, the inhibition constant Ki at Carbonic anhydrase 12 is 266 nM; at Carbonic anhydrase 1, 2920 nM; at Carbonic anhydrase 9, 29 nM; at Carbonic anhydrase 2, 53.6 nM.

Regarding `NS(=O)(=O)c1ccc(-c2nnc(SCC(=O)Nc3ccc(Cl)cc3)o2)cc1`, the Ki on Carbonic anhydrase 12 came out at 838 nM; on Carbonic anhydrase 1 it was 2080 nM; on Carbonic anhydrase 9 it was 757 nM; at Carbonic anhydrase 2 it was 96 nM.

Take `NS(=O)(=O)c1ccc(-c2nnc(SCC(=O)Nc3ccc([N+](=O)[O-])cc3)o2)cc1`: the Ki stood at 737 nM at Carbonic anhydrase 12, 762 nM at Carbonic anhydrase 1, 256 nM on Carbonic anhydrase 9 and 73.1 nM at Carbonic anhydrase 2.

Turning to `COc1cccc(NC(=O)CSc2nnc(-c3ccc(S(N)(=O)=O)cc3)o2)c1`, the inhibition constant (Ki) at Carbonic anhydrase 12 worked out at 690 nM; on Carbonic anhydrase 1 it was 673 nM; on Carbonic anhydrase 9, 53.1 nM; at Carbonic anhydrase 2, 69.8 nM.

As to `COc1ccc(C(=O)CSc2nnc(-c3ccc(S(N)(=O)=O)cc3)o2)cc1`, the Ki was 3620 nM at Carbonic anhydrase 12, 3810 nM on Carbonic anhydrase 1, 449 nM on Carbonic anhydrase 9 and 158 nM at Carbonic anhydrase 2.

For the compound `NS(=O)(=O)c1ccc(-c2nnc(SCC(=O)c3cccc(Cl)c3)o2)cc1`, the inhibitory constant (Ki) on Carbonic anhydrase 12 is 383 nM; at Carbonic anhydrase 1 it was 544 nM; at Carbonic anhydrase 9, 1250 nM; at Carbonic anhydrase 2, 59.2 nM.

Take `NS(=O)(=O)c1ccc(-c2nnc(SCC(=O)c3ccc([N+](=O)[O-])cc3)o2)cc1`: the Ki on Carbonic anhydrase 12 amounted to 294 nM; at Carbonic anhydrase 1 it was 70.7 nM; at Carbonic anhydrase 9 it was 633 nM; on Carbonic anhydrase 2 it was 29.5 nM.

Regarding `NS(=O)(=O)c1ccc(-c2nnc(SCC(=O)c3ccccc3)o2)cc1`, the Ki on Carbonic anhydrase 12 came out at 265 nM; at Carbonic anhydrase 1, 1360 nM; on Carbonic anhydrase 9, 757 nM; on Carbonic anhydrase 2, 347 nM.

`NS(=O)(=O)c1ccc(-c2nnc(SCC(=O)c3ccc(Cl)cc3)o2)cc1`: the Ki stood at 840 nM at Carbonic anhydrase 12, 595 nM on Carbonic anhydrase 1, 1320 nM on Carbonic anhydrase 9 and 67.3 nM on Carbonic anhydrase 2.

As to `NS(=O)(=O)c1ccc(-c2nnc(SCC(=O)Nc3cccc([N+](=O)[O-])c3)o2)cc1`, the Ki at Carbonic anhydrase 12 was found to be 257 nM; on Carbonic anhydrase 1, 73.2 nM; at Carbonic anhydrase 9, 16.3 nM; at Carbonic anhydrase 2, 7.9 nM.

Consider `NS(=O)(=O)c1ccc(-c2nnc(SCC(=O)Nc3ccc(Br)cc3)o2)cc1`, for which the inhibition constant Ki was 751 nM at Carbonic anhydrase 12, 3900 nM at Carbonic anhydrase 1, 671 nM at Carbonic anhydrase 9 and 848 nM at Carbonic anhydrase 2.

Consider `NS(=O)(=O)c1ccc(-c2nnc(SCC(=O)Nc3ccccc3)o2)cc1`, for which the Ki at Carbonic anhydrase 12 stood at 366 nM; on Carbonic anhydrase 1 it was 542 nM; at Carbonic anhydrase 9, 111 nM; at Carbonic anhydrase 2, 61.1 nM.

With `Cc1ccc(C(=O)CSc2nnc(-c3ccc(S(N)(=O)=O)cc3)o2)cc1`, the Ki on Carbonic anhydrase 12 worked out at 231 nM; at Carbonic anhydrase 1, 3320 nM; at Carbonic anhydrase 9, 201 nM; on Carbonic anhydrase 2, 148 nM.

For `COc1cccc(C(=O)CSc2nnc(-c3ccc(S(N)(=O)=O)cc3)o2)c1`, the Ki on Carbonic anhydrase 12 worked out at 492 nM; at Carbonic anhydrase 1, 470 nM; at Carbonic anhydrase 9 it was 1330 nM; at Carbonic anhydrase 2, 79.6 nM.

Turning to `NS(=O)(=O)c1ccc(-c2nnc(SCC(=O)c3ccc(F)cc3)o2)cc1`, the inhibitory constant (Ki) at Carbonic anhydrase 12 worked out at 2240 nM; on Carbonic anhydrase 1, 744 nM; at Carbonic anhydrase 9, 1980 nM; on Carbonic anhydrase 2 it was 69.4 nM.

Turning to `NS(=O)(=O)c1ccc(-c2nnc(SCC(=O)Nc3ccc(F)cc3)o2)cc1`, the Ki came to 588 nM on Carbonic anhydrase 12, 711 nM on Carbonic anhydrase 1, 163 nM on Carbonic anhydrase 9 and 85.7 nM on Carbonic anhydrase 2.

`NS(=O)(=O)c1ccc(-c2nnc(SCC(=O)Nc3cccc(Cl)c3)o2)cc1`: the Ki was 400 nM on Carbonic anhydrase 12, 501 nM on Carbonic anhydrase 1, 50.8 nM on Carbonic anhydrase 9 and 81.9 nM at Carbonic anhydrase 2.

In the case of `NS(=O)(=O)c1ccc(-c2nnc(SCC(=O)c3cccc([N+](=O)[O-])c3)o2)cc1`, the Ki was found to be 577 nM at Carbonic anhydrase 12, 669 nM at Carbonic anhydrase 1, 566 nM at Carbonic anhydrase 9 and 58.5 nM on Carbonic anhydrase 2.

As for `NS(=O)(=O)c1ccc(-c2nnc(SCC(=O)c3ccc(Br)cc3)o2)cc1`, the inhibitory constant (Ki) at Carbonic anhydrase 12 was found to be 636 nM; on Carbonic anhydrase 1, 617 nM; on Carbonic anhydrase 9, 1750 nM; at Carbonic anhydrase 2, 67 nM.
